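All cell lines were grown in 96-well plates and treated with compound for 48 hours. Abbreviation: GI50, concentration required for 50% inhibition of growth. TGI is the concentration that stops growth completely.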
How the values were obtained:
Assay in all cases: NCI anticancer screen, dose series, 48 h
HS 578T breast = tested on: HS 578T breast
NCI-H522 lung = tested on: NCI-H522 lung
CCRF-CEM leukemia = tested on: CCRF-CEM leukemia
EKVX NSCLC = tested on: EKVX NSCLC
RPMI-8226 leukemia = tested on: RPMI-8226 leukemia
ACHN renal = tested on: ACHN renal
PC-3 prostate = tested on: PC-3 prostate
COLO 205 colon = tested on: COLO 205 colon
HCT-15 colon = tested on: HCT-15 colon
SK-MEL-5 melanoma = tested on: SK-MEL-5 melanoma

Row | Structure (SMILES) | TGI (HS 578T breast) [µM] | TGI (NCI-H522 lung) [µM] | TGI (CCRF-CEM leukemia) [µM] | TGI (EKVX NSCLC) [µM] | TGI (RPMI-8226 leukemia) [µM] | TGI (ACHN renal) [µM] | TGI (PC-3 prostate) [µM] | TGI (COLO 205 colon) [µM] | TGI (HCT-15 colon) [µM] | TGI (SK-MEL-5 melanoma) [µM] | GI50 (HS 578T breast) [µM] | GI50 (NCI-H522 lung) [µM] | GI50 (CCRF-CEM leukemia) [µM] | GI50 (EKVX NSCLC) [µM] | GI50 (ACHN renal) [µM] | GI50 (HCT-15 colon) [µM] | GI50 (SK-MEL-5 melanoma) [µM]
1 | Cc1ccc(OCC2OC(n3cnc4c(N(C)C)nc(Br)nc43)CC2Oc2ccc(C)cc2)cc1 (stereo unspecified) | > 100 | > 100 | > 100 | > 100 | > 100 | > 100 | > 100 | > 100 | > 100 | > 100 | – | – | – | – | – | – | –
2 | CC(C)=CC(=O)O[C@H]1C(=O)O[C@@H]2C[C@H]3[C@H](C)C(=O)C(O[C@@H]4O[C@H](CO)[C@@H](O)[C@H](O)[C@H]4O)=C[C@]3(C)[C@H]3[C@@H](O)[C@H](O)[C@]4(C(=O)O)OC[C@]32[C@@H]14 | > 100 | 52.6 | > 100 | > 100 | – | > 100 | > 100 | > 100 | > 100 | > 100 | > 100 | 29 | 36.3 | > 100 | > 100 | > 100 | 42.9
3 | C=C1C(=O)OC2(C)C3CCC(C3)C12 (stereo unspecified) | – | 85.8 | > 100 | > 100 | > 100 | > 100 | – | 48.4 | > 100 | > 100 | – | – | – | – | – | – | –
4 | Cc1ccc(OCC2OC(n3cnc4nc(Cl)nc(Cl)c43)CC2Oc2ccc(C)cc2)cc1 (stereo unspecified) | 54.6 | 4.31 | > 23.1 | 34 | 9.35 | 7.9 | 24.5 | 27.6 | 6.33 | 30.8 | – | – | – | – | – | – | –
5 | O=C(CN1CCN(Cc2ccccc2)CC1)N1CCCn2c1nc1ccccc1c2=O | > 100 | > 100 | > 100 | > 100 | > 100 | > 100 | > 100 | > 100 | > 100 | > 100 | – | – | – | – | – | – | –
6 | O=C(/C=C/c1cccc(Br)c1)c1cccs1 | 72.3 | – | 23.6 | 37.4 | 5.42 | 39.8 | 31.6 | 46 | 35.8 | 30.7 | – | – | – | – | – | – | –
7 | CCOC(=O)c1cc(C(=O)c2ccccc2)n2nc(-c3ccc(Cl)cc3)ccc12 | 41.5 | 43.7 | > 100 | 42.6 | > 100 | 28.2 | 30.4 | > 100 | > 100 | 51.9 | – | – | – | – | – | – | –
8 | O=c1/c(=C\c2ccccc2)sc2n1C(c1ccccc1)C1(O)CCCCC1N=2 (stereo unspecified) | – | > 100 | > 100 | – | > 100 | > 100 | > 100 | – | > 100 | > 100 | – | – | – | – | – | – | –
9 | COc1cccc(-c2ccc3c4c2O[C@H]2c5[nH]c6ccccc6c5C[C@@]5(O)[C@@H](C3)N(CC3CC3)CC[C@]425)c1 | 3.33 | – | > 100 | 9.5 | 5.25 | 2.98 | 2.48 | 4.15 | 3.7 | 3.85 | – | – | – | – | – | – | –
10 | COc1ccc2[nH]c(Cl)c(/C=C3/C(=O)Nc4cc(C)c(OC)cc43)c2c1 | 20.9 | 9.62 | 19.1 | 22.7 | > 100 | 21.4 | 16.1 | 5.9 | 12.9 | 6.32 | – | – | – | – | – | – | –
11 | Cc1cc(-c2[nH]c(C(=O)O)cc2I)on1 | > 100 | > 100 | – | > 100 | > 100 | > 100 | > 100 | > 100 | > 100 | > 100 | – | – | – | – | – | – | –
12 | CCCCc1c(C(=O)OC(C)(C)C)cc(C#Cc2cc(C(=O)OC(C)(C)C)c(CCCC)c(C(=O)OC(C)(C)C)c2)cc1C(=O)OC(C)(C)C | – | > 100 | – | > 100 | > 100 | > 100 | > 100 | > 100 | > 100 | > 100 | – | – | – | – | – | – | –
13 | O=C(O)CCCCCOc1cccnc1/C=N/NC1=NCCN1 | – | > 100 | > 100 | > 100 | > 100 | > 100 | – | > 100 | > 100 | > 100 | – | – | – | – | – | – | –
14 | CCC1C(c2cccc(OC)c2O)c2cc3c(cc2OC1N1CCCC1)OCO3 (stereo unspecified) | 29.9 | 35.4 | 46.7 | > 100 | 34 | 84.3 | 89.2 | – | 40.3 | 22.8 | – | – | – | – | – | – | –
15 | CCCCCC(=O)c1ccc2[nH]c3c(C)cc([N+](=O)[O-])c(C)c3c2c1 | – | > 100 | > 100 | > 100 | > 100 | > 100 | – | > 100 | > 100 | > 100 | – | – | – | – | – | – | –
16 | Cc1ccnc2[nH]c(-c3cccc(Cl)c3)cc(=O)c12 | > 100 | > 100 | > 100 | > 100 | – | > 100 | > 100 | – | > 100 | > 35.7 | – | – | – | – | – | – | –
17 | O=C(Nc1cccc(C(F)(F)F)c1)O/N=C(/Cl)CCl | > 100 | – | > 100 | > 100 | 75.1 | > 100 | > 100 | > 100 | > 100 | > 100 | – | – | – | – | – | – | –
18 | C1CSCCCSCCSCCCSC1 | > 100 | > 100 | – | > 100 | > 100 | > 100 | > 100 | > 100 | > 100 | > 100 | – | – | – | – | – | – | –
19 | CC1(C)[C@@H](Cn2cnc3c(N)ncnc32)CC[C@@]1(C)CO | > 100 | > 100 | > 100 | > 100 | – | > 100 | > 100 | > 100 | > 100 | > 100 | – | – | – | – | – | – | –
20 | COc1ccccc1-c1cc(=O)c2ccccc2[nH]1 | – | > 100 | > 100 | > 100 | > 100 | > 100 | – | > 100 | > 100 | – | – | – | – | – | – | – | –
21 | CN(C)c1nc(NC23CC4CC(CC(C4)C2)C3)nc(N(C)C)n1 | 56 | – | 28.7 | > 100 | 12.7 | > 100 | > 42.2 | > 49.6 | 41.2 | 24.8 | – | – | – | – | – | – | –
22 | CC(C)CCC[C@@H](C)[C@H]1CCC2C3CC=C4C[C@@H](Oc5c6ccccc6nc6ccccc56)CCC4C3CCC21 (stereo partly specified) | > 50 | > 50 | > 50 | > 50 | – | > 50 | > 50 | > 50 | > 50 | > 50 | – | – | – | – | – | – | –
